{"source": "patent US20140178411A1", "about": "“COMPOUNDS AND METHODS FOR THE TREATMENT OF CD20 POSITIVE DISEASES” (BIO-THERA SOLUTIONS, LTD., CO., priority 2012, published 2014)", "key": {"[1]": {"test_system": "human acute lymphoblastic leukemia line C.E.M.", "conditions": "Wolpert-DeFillippes et al. 1975; cited from earlier work"}, "tubulin": {"test_system": "tubulin", "conditions": "10 μL added to 100 μL 4 mg/ml tubulin, FIG. 1", "method": "The effect of 3AA-MDC and related metabolites on the tubulin polymerization in vitro was assessed by HTS-Tubulin Polymerization Assay Kit (BK004P, Cytoskeleton, Inc., USA). According to the instruction of kit, pre-warm the 96-well plate to 37° C. for 30 min prior to starting the assay. At the same time, the spectrophotometer (SpectraMax, Molecular Devices, USA) was set as follow: wavelength, 405 nm; temperature, 37° C.; Kinetic, 31 cycles of 1 reading per minute. Make cold G-PEM buffer (990 μL General Tubulin Buffer+10 μL GTP Stock) and keep it on ice. Prepare 4 mg/ml tubulin, 200 nM L-3AA-MDC (N2′-deacetyl-N2′-(6-maleimido-1-oxo-hexyl)maytansine), or related compounds cys-3AA-MDC, or lys-mcc-MDC, 100 μM Paclitaxel, 100 μM Nocodazole, and 1 μM 206-3AA-MDC (3AA-MDC-antibody conjugate). Add 10 μL G-PEM, 3AA-MDC, Paclitaxel, Nocodazole and 206-3AA-MDC or related metabolites into the wells, and then add 100 μL 4 mg/ml tubulin to each well. Immediately place the plate into the spectrophotometer and start recording using the kinetic setup described above."}}, "data": [{"compound": "COc1cc2cc(c1Cl)N(C)C(=O)C[C@H](OC(=O)[C@H](C)N(C)C(C)=O)[C@]1(C)O[C@H]1[C@H](C)[C@@H]1C[C@@](O)(NC(=O)O1)[C@H](OC)/C=C/C=C(\\C)C2", "note": "[Maytansine]", "values": [{"measurement": "concentration that inhibits C.E.M. line (as low as)", "setting": "[1]", "value": "10^−7 µg/mL"}]}, {"compound": "CC(=O)O[C@H]1C(=O)[C@@]2(C)[C@H]([C@H](OC(=O)c3ccccc3)[C@]3(O)C[C@H](OC(=O)[C@H](O)[C@@H](NC(=O)c4ccccc4)c4ccccc4)C(C)=C1C3(C)C)[C@]1(OC(C)=O)CO[C@@H]1C[C@@H]2O", "note": "[Paclitaxel]", "values": [{"measurement": "relative activity of tubulin polymerization enhanced", "setting": "tubulin; 100 μM Paclitaxel stock, 37° C., 405 nm", "value": "about 3 fold"}]}, {"compound": "COC(=O)Nc1nc2ccc(C(=O)c3cccs3)cc2[nH]1", "note": "[Nocodazole]", "values": [{"measurement": "relative activity of tubulin polymerization decreased", "setting": "tubulin; 100 μM Nocodazole stock, 37° C., 405 nm", "value": 2.5, "unit": "fold"}]}, {"compound": "COc1cc2cc(c1Cl)N(C)C(=O)C[C@H](OC(=O)[C@H](C)N(C)C(=O)CCCCCN1C(=O)C=CC1=O)[C@]1(C)OC1[C@H](C)[C@@H]1C[C@@](O)(NC(=O)O1)[C@H](OC)/C=C/C=C(\\C)C2", "note": "(stereo partly drawn) [L-3AA-MDC, N2′-deacetyl-N2′-(6-maleimido-1-oxo-hexyl)maytansine]", "values": [{"measurement": "effect on tubulin polymerization (in words)", "setting": "tubulin; 200 nM stock, compared with Nocodazole", "value": "more significantly inhibited the tubulin polymerization"}]}]}
